The record followed here is patent US20140056966A1, “CONJUGATE ANGIOSTATION OR ITS FRAGMENT, THE METHOD OF PRODUCING THE CONJUGATE AND USE THEREOF” (PROTGEN LTD., priority 2007, published 2014).

One data set relates to NCI-H226 NSCLC xenograft. The data set is described as follows: NCI-H226 NSCLC xenograft model, tumor burden. The data set is classed as in vivo, Balb/c nu/nu mice. The note with it: for T/C ratio: PEG-K1-3 4.5 mg/kg i.v., Taxol 20 mg/kg i.v.
Data set [1] in a line: body weight of animals in the NCI-H226 xenograft model. The settings on record: 20 mg/kg; Day 11 and Day 25; ANOVA p<0.05.
Procedure: (§1) Female Balb/c nu/nu mice aged 6-8 weeks of about 18-20 g weight (institute of laboratory animal sciences, CAMS) were used in this experiment. Mice were subcutaneously inoculated on the right side with NCI-H226 cells (human pancreatic cancer cell line, derived from ATCC, ATCC number CRL-5826). When the tumor volume reached about 80-125 mm^3, the animals were divide into 3 groups randomly (6 per group). […] The body weight and tumor volume of the animals were measured twice a week. Sacrifice the animals on day 28, collect the tumors and take photographs.

Procedure for NCI-H226 NSCLC xenograft: as §1

For the compound `CC(=O)O[C@H]1C(=O)[C@@]2(C)[C@H]([C@H](OC(=O)c3ccccc3)[C@]3(O)C[C@H](OC(=O)[C@H](O)[C@@H](NC(=O)c4ccccc4)c4ccccc4)C(C)=C1C3(C)C)[C@]1(OC(C)=O)CO[C@@H]1C[C@@H]2O` [Taxol, reference compound], the “tumor burden compared with the control group” value in the data set with NCI-H226 NSCLC xenograft (20 mg/kg i.v., Day 11, Day 15, Day 18) is given as “significantly difference”. In addition, the T/C ratio with NCI-H226 NSCLC xenograft (Day 4) is reported as 69%; in the data set on NCI-H226 NSCLC xenograft (Day 11), 39%; in the data set on NCI-H226 NSCLC xenograft (Day 18), 28%; in the data set on NCI-H226 NSCLC xenograft (Day 25), 18%. This compound gave a tumor inhibition rate in the data set with NCI-H226 NSCLC xenograft (tumor burden 21 days after treatment, vs control group, PEG-K1-3 4.5 mg/kg, Taxol 20 mg/kg) of 84.43%. Moreover, in data set [1], the “average body weight compared with the control group” value was “significantly lower”.
